Key:
Classical Pathway = assay: Inhibition of Classical pathway-mediated lysis of antibody-sensitized sheep erythrocytes in normal human serum; type: biochemical
Protocol: To determine whether the interaction of C2 with ShTORE-ed-1 could affect the normal interaction of C2 with other complement proteins and thereby inhibit complement activation, the effect of the TORE-ed-1 peptide on complement activation was assessed. The ability of the TORE-ed-1 peptide to inhibit the lysis of antibody-sensitized sheep erythrocytes, in the presence of normal human serum, NHS (and therefore in the presence of complement proteins C1 through to […]), in a dose-dependent manner, was used as a measure of its ability to inhibit the Classical Pathway. The extent of haemolysis was determined by spectrophotometric measurement of haemoglobin release at 412 nm. An IC60 value of approximately 10 μM was found (FIG. 11A and B).
(§1) FIG. 11(A) and (B) Effect of increasing TORE-ed1 peptide on the complement-mediated lysis of sensitized sheep red blood cells in the presence of normal human serum as a source of complement. FIG. 11(C) and (D) Effect of increasing TORE-ed1 peptide preincubated with C2 on haemolysis in the presence of human serum in which C2 is limiting. FIG. 11(E) effect of various Tore peptides and Tore related C4b-derived peptides on complement mediated lysis.

[1] = Immune complex inflammation in mouse ear (human albumin i.v., anti-HA s.c.); type: in vivo, Mice
Protocol: FIG. 22: Mice (7 or 8 per group) injected with human albumin (HA) 10 mg/kg i.v. (200 μl of a solution 1 mg/ml in Evans blue1%). After 5 min anti-HA injected s.c. in situ (in ear). Test compounds then injected and after 4 h evaluations made for reduction of inflammation. Oedema was evaluated by weight. Plasma extravasation as measure of microvascular permeability or haemorrage was measured by extraction of extravasated Evan's blue dye with formamide from injected ears. As well as subcutaneous (s.c.) administration of H17 (the test compound of formula HEVKIKHFSPY at two concentrations), it was also given intravenously (0.1 mg/kg). The positive control for reduction in inflammation in this experiment was cromolyn.

human complement C2 [2] = molecular target: T1, human complement C2 (Homo sapiens, UniProt P06681); assay: Haemolysis with C2-deficient human serum reconstituted with C2, peptide preincubated with C2; type: biochemical; conditions: peptide preincubated with C2 before addition to C2-depleted serum
T1 sequence (P06681 21-752): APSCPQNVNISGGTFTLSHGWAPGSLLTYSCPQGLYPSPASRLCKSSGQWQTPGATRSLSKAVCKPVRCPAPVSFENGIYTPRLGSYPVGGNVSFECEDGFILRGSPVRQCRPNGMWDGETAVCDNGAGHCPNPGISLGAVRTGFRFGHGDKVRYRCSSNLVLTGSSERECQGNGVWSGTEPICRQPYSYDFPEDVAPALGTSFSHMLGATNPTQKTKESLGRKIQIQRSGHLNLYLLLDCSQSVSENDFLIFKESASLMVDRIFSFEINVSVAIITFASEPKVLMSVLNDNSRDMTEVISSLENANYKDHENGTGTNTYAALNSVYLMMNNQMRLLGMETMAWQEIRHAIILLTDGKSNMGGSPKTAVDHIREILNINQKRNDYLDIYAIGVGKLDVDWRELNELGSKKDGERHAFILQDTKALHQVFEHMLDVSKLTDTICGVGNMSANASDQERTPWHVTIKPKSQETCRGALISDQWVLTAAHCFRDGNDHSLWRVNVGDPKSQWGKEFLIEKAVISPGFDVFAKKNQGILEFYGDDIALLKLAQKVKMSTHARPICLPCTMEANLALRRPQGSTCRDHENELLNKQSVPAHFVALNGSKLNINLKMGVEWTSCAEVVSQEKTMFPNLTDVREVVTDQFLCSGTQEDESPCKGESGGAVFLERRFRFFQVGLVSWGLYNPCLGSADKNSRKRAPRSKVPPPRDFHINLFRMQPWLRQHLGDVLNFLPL
Protocol: As an additional confirmation that TORE-ed-1 specifically binds to human complement C2, C2-deficient human serum with enough C2 added to reconstitute haemolytic activity, was used in the same assay.
as §1

human complement C2 [3] = molecular target: T1, human complement C2; assay: Receptor affinity chromatography with immobilised ed-1 peptide; type: binding; parameters: One litre of serum-free medium which had maintained the cells; endogenous in cells; host or cells: THP-1 (human macrophage-like cells), conditioned serum-free medium
From the text: In order to identify a likely ligand, the putative ligand-binding domain of ShTORE, extracellular domain 1 (ed-1), was used in receptor affinity chromatography. It was assumed that the cells expressing the receptor themselves produced the ligand in an “autocrine” manner. The cells chosen were the macrophage-like (human) THP-1 cells. These were adapted to grow in conditioned, serum-free medium in order to increase the chances of finding the ligand for TORE. One litre of serum-free medium which had maintained the cells, and as a control one litre of serum-free medium without cells, was passed through identical epoxy-activated Sepharose 6B columns with the 27-mer ShTORE-ed-1 peptide attached. Fractions were collected from a low pH elution and 20 μl aliquots run on SDS-PAGE. An 83 kDa protein band was identified (FIG. 10A, lane 1). The fraction was concentrated, transferred to problot and stained with Coomassie Brilliant blue. The band was then excised and the N-terminal sequence determined. The resulting six residues indicated the protein to be human complement protein C2. The fully glycosylated version of C2, however should have been 102 kDa.

For “HEVKIKHFSPY (shistosoma haematobium) [H17]”, the “complement inhibition in vitro” value (Classical Pathway) was “capable of effective complement inhibition in vitro”, the “reduction of haemorrage (Evans blue extravasation)” value ([1]; 1 μg dose, 4 h) was 30% and the “reduction of oedema (by weight)” value ([1]; 1 μg dose, 4 h) was 28%.

In the case of “FEVKITPGKPY [C4b β chain derived peptide]”, the “complement inhibition in vitro” value (Classical Pathway) is reported as “shown to inhibit complement in vitro”.

In the case of “HEVKIKSPY [TOR-ed1 peptide; probably a misprint of …]”, the “inflammation mediated by immune complexes and Classical pathway complement (Type III hypersensitivity)” value ([1]; in vivo) is reported as “reduce inflammation”.

In the case of “NH2-Met-Ser-Pro-Ser-Leu-Val-Ser-Asp-Thr-Gln-Lys-His-Glu-Arg-Gly-Ser-His-Glu-Val-Lys-Ile-Lys-His-Phe-Ser-Pro-Tyr-CO2H (H-MSPSLVSDTQKHERGSHEVKIKHFSPY-OH) [TORE-ed-1 peptide, 27-mer peptide of extracellular domain 1 of ShTORE]”, the “inhibition of haemolytic activity” value (human complement C2 [2]) is reported as “inhibit haemolytic activity”, the “interaction with C2” value (human complement C2 [3]) is reported as “interact with human complement protein C2” and the “complement inhibition in vitro” value (Classical Pathway) is reported as “inhibit complement action in vitro”. For the same substance, the “concentration able to inhibit the haemolytic activity of C2 from the Classical pathway” value (Classical Pathway; normal human serum) was 10 µM and the “IC60, inhibition of lysis of antibody-sensitized sheep erythrocytes” value (Classical Pathway; normal human serum, haemoglobin release at 412 nm) was “approximately 10 μM”.

For “SSTSDIRLVIHTKTGPIYIKST (shistosoma haematobium) [SEQ ID NO 2]”, the “complement inhibition in vitro” value (Classical Pathway) was “inhibit complement action in vitro”.
